The subject of one series is N18-RE-105 cells. Nature of the series: Glutamate-induced cell death, MTT conversion (Example 5). Format: cell-based. The note with it: 5 mM glutamate, 19 hours; for blue formazan product relative to control without glutamate: inhibitor 3 μg/ml. The protocol:
Stock cultures of N18-RE-105 cells were maintained in Dulbecco's modified Eagle's medium (DMEM) containing 10% fetal bovine serum (FBS) and supplemented with hypoxanthine, aminopterin and thymidine (HAT). Subconfluent cultures were split and plated into 96-well plates. Twenty-four hours after plating the cells were exposed to fresh media containing glutamate and various concentrations of Calpain inhibitors. Control cells were not treated with glutamate. Conversion of MTT was measured 19 hours later as described. Nineteen hours after the onset of exposure, cell viability was quantitated by measuring the extent to which the cells convert 3(4,5-dimethylthiazol-2-yl)-2-5-diphenyltetrazolium bromide (MTT) to a blue formazan product, which occurs in the mitochondria of living but not dead cells (Pauwels et al., 1988). A higher absorbance is indicative of greater cell viability.

For series [1], the target named is T1, Cathepsin B (Bos taurus, UniProt P07688). In words: Cathepsin B inhibition, Z-Arg-Arg-AFC (Table PKC1). Format: biochemical. The note with it: pH 6.0 phosphate buffer, substrate Z-Arg-Arg-AFC; read-out: Ki CB (Cathepsin B). Put shortly:
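Enzyme added last to inhibitor (in DMSO) and Z-Arg-Arg-AFC in pH 6.0 phosphate buffer with 1.33 mM EDTA and 2.7 mM cysteine. AFC release followed fluorimetrically (ex 400 nm, em 505 nm) at various substrate and inhibitor concentrations; Ki from Dixon plot.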

The next series has as its target Calpain II. In words: Calpain II KI (Table 1B(ii)). Type of series: biochemical. The source says:
(§1) We tested the ability of an additional group of Peptide Keto-Compounds to inhibit several proteases in order to evaluate their specificity for Calpain.

The target in series [2] is T1, Cathepsin B. Nature of the series: Cathepsin B KI (Table 1B(ii)). Format: biochemical. As to conditions: read-out: KI CathB.
Text: as §1

The target in another series is PP Elastase (Sus scrofa, UniProt P00772). Nature of the series: PP Elastase KI (Table 1B(ii)). Format: biochemical.
Text: as §1

Another series in a line: Stability in plasma. Type of series: in vitro ADME. As to conditions: unit assumed. An excerpt: We determined the haft-life of several Peptide Keto-Compounds in both plasma and liver homogenates.
Series [3] deals with T2, Calpain I from human erythrocytes (Homo sapiens, UniProt P07384).
T2 construct: Calpain I from human erythrocytes and calpain II from rabbit were assayed using Suc-Leu-Tyr-AMC; from tissue; host or cells: human erythrocytes
T2 sequence (P07384 1-714): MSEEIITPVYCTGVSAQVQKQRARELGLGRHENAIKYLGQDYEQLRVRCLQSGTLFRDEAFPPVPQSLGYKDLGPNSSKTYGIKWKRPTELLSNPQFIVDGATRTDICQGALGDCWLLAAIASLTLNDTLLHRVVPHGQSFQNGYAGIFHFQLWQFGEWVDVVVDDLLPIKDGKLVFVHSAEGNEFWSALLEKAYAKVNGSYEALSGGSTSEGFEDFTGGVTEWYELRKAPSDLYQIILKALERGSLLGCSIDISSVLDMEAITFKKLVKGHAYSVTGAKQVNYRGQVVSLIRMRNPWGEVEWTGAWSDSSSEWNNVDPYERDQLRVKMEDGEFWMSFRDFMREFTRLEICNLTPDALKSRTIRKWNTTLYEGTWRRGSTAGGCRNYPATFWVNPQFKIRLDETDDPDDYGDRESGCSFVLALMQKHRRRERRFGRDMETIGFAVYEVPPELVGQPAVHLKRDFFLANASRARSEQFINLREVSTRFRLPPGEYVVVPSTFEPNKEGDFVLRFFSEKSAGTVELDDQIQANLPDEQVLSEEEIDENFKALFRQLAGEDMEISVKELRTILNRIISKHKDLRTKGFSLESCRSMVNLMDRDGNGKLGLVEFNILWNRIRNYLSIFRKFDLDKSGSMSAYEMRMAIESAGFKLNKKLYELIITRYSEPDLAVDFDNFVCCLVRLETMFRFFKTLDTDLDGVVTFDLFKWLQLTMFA
T2 sequence (P04632 1-268 partner): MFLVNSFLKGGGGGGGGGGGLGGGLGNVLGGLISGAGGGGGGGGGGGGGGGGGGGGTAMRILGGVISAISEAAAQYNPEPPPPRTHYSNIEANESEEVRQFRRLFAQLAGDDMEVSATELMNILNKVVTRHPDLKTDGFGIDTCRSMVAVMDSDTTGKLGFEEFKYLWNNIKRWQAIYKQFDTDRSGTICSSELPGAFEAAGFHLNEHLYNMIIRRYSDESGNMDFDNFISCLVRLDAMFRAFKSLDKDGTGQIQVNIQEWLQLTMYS
In words: Calpain I Ki (Table 1B(i)). Type of series: biochemical. As to conditions: Suc-Leu-Tyr-amidomethylcoumarin, HEPES pH 7.2. As to the method: The Peptide Keto-Compounds are reversible inhibitors of Calpains and other thiol proteases. […] Cathepsin B from bovine spleen was assayed using Z-Lys-4-nitrophenylphosphate as substrate.
The Ki value for the inhibition of Calpains and cathepsin B by several Peptide Keto-Compounds are shown in μM (micromolar). The values for leupeptin, which is commercially available from Calbiochem of La Jolla, Calif., are shown for comparison.

Each structure is given as a SMILES string. A value given as a limit tells only on which side of the number the result lay.

Chain of PP Elastase (P00772 27-266): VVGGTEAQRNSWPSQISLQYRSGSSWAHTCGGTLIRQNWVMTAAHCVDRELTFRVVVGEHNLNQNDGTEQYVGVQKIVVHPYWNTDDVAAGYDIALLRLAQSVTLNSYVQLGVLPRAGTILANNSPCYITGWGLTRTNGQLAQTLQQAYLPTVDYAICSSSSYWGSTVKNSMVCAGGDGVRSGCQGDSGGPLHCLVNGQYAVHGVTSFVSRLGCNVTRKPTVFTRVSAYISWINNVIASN

For the compound `N=C(N)SCCCOc1oc(=O)c2ccccc2c1Cl` [CiTprOIC, 4-chloro-3-(3-isothiureidopropoxy)isocoumarin], the “blue formazan product relative to control without glutamate” value in the series with N18-RE-105 cells was not below 100%.

As a reminder, the Ki is a dissociation constant, usually derived from enzyme kinetics or from competition with a known ligand. As for `CCCC(NC(=O)[C@H](CC(C)C)NC(=O)OCc1ccccc1)C(=O)C(=O)OCC` (mixture of isomers) [Z-Leu-Nva-COOEt, Z-Leu-DL-Nva-COOEt], the inhibition constant (Ki) at Cathepsin B [1] came out at 30 µM; on Calpain II it was 1.2 µM; at Cathepsin B [2], 25 µM; on PP Elastase it was 2.3 µM. Further, the t1/2 plasma in “Stability in plasma” stood at 2.8 min.

For `CCCCC(NC(=O)C(CC(C)C)NC(=O)OCc1ccccc1)C(=O)C(=O)OCC` (stereo not drawn) [Z-Leu-Nle-COOEt, Z-Leu-NLeu-CO2 Et], the Ki worked out at 0.18 µM on Calpain II, 20 µM at Cathepsin B [2] and 2.2 µM on PP Elastase. In “Stability in plasma”, the t1/2 plasma came to 3.7 min.

For `N=C(N)SCCCOc1oc(=O)c2cc(N)ccc2c1Cl` [NH2 -CiTPrOIC (ACITIC), 7-amino-4-chloro-3-(3-isothiureidopropoxy)isocoumarin], the “blue formazan product relative to control without glutamate” value in the series on N18-RE-105 cells is not below 100%.

Take `CCOC(=O)C(=O)C(CC)NC(=O)[C@H](C)NC(=O)[C@H](C)NC(=O)OCc1ccccc1` (mixture of isomers) [Z-Ala-Ala-DL-Abu-COOEt, Z-Ala-Ala-DL-Abu-CO2 Et]: the Ki on Cathepsin B [1] was determined as 10 µM; in series [3] it was 50 µM. The “blue formazan product relative to control without glutamate” value in the series on N18-RE-105 cells is on record as not below 100%.

Take `CC(=O)N[C@@H](CC(C)C)C(=O)N[C@@H](CC(C)C)C(=O)N[C@H](C=O)CCCNC(=N)N` [Leupeptin, Ac-Leu-Leu-Arg-H, reference compound]: the affinity in series [3] corresponds to a Ki of 0.32 µM. Also, in the series with N18-RE-105 cells (leupeptin 5 μg/ml), the “protection against glutamate toxicity” value is listed as “protect N18-RE-105 cells against glutamate toxicity”.

Consider `CCOC(=O)C(=O)[C@H](CC)NC(=O)[C@H](CC(C)C)NC(=O)OCc1ccccc1` (racemic) [Z-Leu-Abu-COOEt, Z-Leu-DL-Abu-COOEt], for which the inhibitory constant (Ki) in series [3] is 0.04 µM; on Calpain II, 0.4 µM; on Cathepsin B [2] it was 30 µM; at PP Elastase it was more than 100 µM. Further, in “Stability in plasma”, the t1/2 plasma was found to be 2.8 min.

Turning to `CCOC(=O)C(=O)C(Cc1ccccc1)NC(=O)C(CC(C)C)NC(=O)OCc1ccccc1` (stereo not drawn) [Z-Leu-Phe-COOEt], the inhibition constant (Ki) was 0.4 µM on Calpain II, 340 µM at Cathepsin B [2] and more than 100 µM on PP Elastase. Also, the t1/2 plasma in “Stability in plasma” came out at 7.8 min.

In the case of `CCC(NC(=O)[C@@H]1CCCN1C(=O)[C@H](C)NC(=O)[C@H](C)NC(=O)CCC(=O)OC)C(=O)C(=O)OC` (mixture of isomers) [MeO-Suc-Ala-Ala-Pro-Abu-COOMe, MeO-Suc-Ala-Ala-Pro-DL-Abu-CO2 Me], the Ki on Cathepsin B [1] was determined as 6 µM.

For the origin of these results see US5444042A, “Method of treatment of neurodegeneration with calpain inhibitors” (Cortex Pharmaceuticals, priority 1994, dated 1995).
